Mutagenic call data for 5 molecules are collected here from PubChem BioAssay AID1259407 (Chemical Carcinogenesis Research Information System (CCRIS), 2018).

Calls of active or inactive are those of the source. The rule behind the calls is not given here.

The data set deals with CCRIS mutagenicity, Ames/micronucleus/aberration tests. Description: CCRIS mutagenicity studies. To be noted: Test System: AMES SALMONELLA TYPHIMURIUM
The mark [1] stands for this setting: Strain/Indicator: TA98, Metabolic Activation: NONE, Method: PREINCUBATION
Setting [2] is: Strain/Indicator: TA100, Metabolic Activation: NONE, Method: PREINCUBATION

In the case of `CC1C(C)(C)C2=C(C(=O)CCC2)C1(C)C` (stereo not drawn), the mutagenic call by setting is: (Strain/Indicator: TA97, Metabolic Activation: NONE, Method: STANDARD PLATE) “inactive; negative”; (Strain/Indicator: TA97, Metabolic Activation: RAT LIVER S-9, AROCLOR 1254, Method: STANDARD PLATE) “inactive; negative”; (Strain/Indicator: TA98, Metabolic Activation: NONE, Method: STANDARD PLATE) “inactive; negative”; (Strain/Indicator: TA98, Metabolic Activation: RAT LIVER S-9, AROCLOR 1254, Method: STANDARD PLATE) “inactive; negative”; (Strain/Indicator: TA100, Metabolic Activation: NONE, Method: STANDARD PLATE) “inactive; negative”; (Strain/Indicator: TA100, Metabolic Activation: RAT LIVER S-9, AROCLOR 1254, Method: STANDARD PLATE) “inactive; negative”. The mutagenic call runs as follows: (Strain/Indicator: TA102, Metabolic Activation: NONE, Method: STANDARD PLATE) “inactive; negative”; (Strain/Indicator: TA102, Metabolic Activation: RAT LIVER S-9, AROCLOR 1254, Method: STANDARD PLATE) “inactive; negative”.
Consider `CN1C(=O)C(O)CC1c1cccnc1` (stereo not drawn), for which the mutagenic call reads like this: under setting [1], “inactive; negative”; (Strain/Indicator: TA98, Metabolic Activation: RAT, LIVER, S-9, AROCLOR 1254 (5%), Method: PREINCUBATION) “inactive; negative”; under setting [2], “inactive; negative”; (Strain/Indicator: TA100, Metabolic Activation: RAT, LIVER, S-9, AROCLOR 1254 (5%), Method: PREINCUBATION) “inactive; negative”; (Strain/Indicator: TA1535, Metabolic Activation: NONE, Method: PREINCUBATION) “inactive; negative”; (Strain/Indicator: TA1535, Metabolic Activation: RAT, LIVER, S-9, AROCLOR 1254 (5%), Method: PREINCUBATION) “inactive; negative”. In addition, the mutagenic call was “inactive; negative” (Strain/Indicator: TA1537, Metabolic Activation: NONE, Method: PREINCUBATION); “inactive; negative” (Strain/Indicator: TA1537, Metabolic Activation: RAT, LIVER, S-9, AROCLOR 1254 (5%), Method: PREINCUBATION); “inactive; negative” (Strain/Indicator: TA1538, Metabolic Activation: NONE, Method: PREINCUBATION); “inactive; negative” (Strain/Indicator: TA1538, Metabolic Activation: RAT, LIVER, S-9, AROCLOR 1254 (5%), Method: PREINCUBATION).
Turning to `CC1=CC(=O)C=C(C)C1=O`, the mutagenic call was “inactive; negative” under setting [1]; “inactive; negative” (Strain/Indicator: TA98, Metabolic Activation: RAT, LIVER, S-9, PHENOBARBITAL AND 5,6-BENZOFLAVONE, Method: PREINCUBATION); “inactive; negative” under setting [2]; “inactive; negative” (Strain/Indicator: TA100, Metabolic Activation: RAT, LIVER, S-9, PHENOBARBITAL AND 5,6-BENZOFLAVONE, Method: PREINCUBATION); “inactive; negative” (Strain/Indicator: TA102, Metabolic Activation: NONE, Method: PREINCUBATION); “inactive; negative” (Strain/Indicator: TA102, Metabolic Activation: RAT, LIVER, S-9, PHENOBARBITAL AND 5,6-BENZOFLAVONE, Method: PREINCUBATION). The mutagenic call reads like this: (Strain/Indicator: TA104, Metabolic Activation: NONE, Method: PREINCUBATION) “inactive; negative”; (Strain/Indicator: TA104, Metabolic Activation: RAT, LIVER, S-9, PHENOBARBITAL AND 5,6-BENZOFLAVONE, Method: PREINCUBATION) “inactive; negative”; (Strain/Indicator: TA2637, Metabolic Activation: NONE, Method: PREINCUBATION) “active; positive”; (Strain/Indicator: TA2637, Metabolic Activation: RAT, LIVER, S-9, PHENOBARBITAL AND 5,6-BENZOFLAVONE, Method: PREINCUBATION) “inactive; negative”.
Take `CCN(CC)S(=O)(=O)c1ccc(N)cc1`: the mutagenic call under setting [1] was “inactive; negative”; the mutagenic call (Strain/Indicator: TA98, Metabolic Activation: RAT, LIVER, S-9, AROCLOR 1254, Method: PREINCUBATION) is “inactive; negative”; the mutagenic call under setting [2] is “inactive; negative”; the mutagenic call (Strain/Indicator: TA100, Metabolic Activation: RAT, LIVER, S-9, AROCLOR 1254, Method: PREINCUBATION) is “inactive; negative”.
Regarding `Nc1nc(N)nc(-c2ccc([N+](=O)[O-])o2)n1`, the mutagenic call (Strain/Indicator: TA100, Metabolic Activation: RAT, LIVER, S-9, KC500 OR PHENOBARBITAL, Method: LIQUID SUSPENSION) was “active; positive”.
